How the values were obtained:
[1] = tested on: undesirable microorganisms; details: typically 0.1-0.5 g/l; potassium sorbate and/or sodium benzoate
grass = test: Ensilage of grass in preserving jars, Example 4; details: laboratory silos
Description: The jars were stored in a climatic test chamber at 20° C. For the control without ensiling agent, water was added in a volume equivalent to 15 weight % FLP with and without bacteria. The additive of 40% weight FLP was added in an amount corresponding to 6 liters/tonne of grass. The FLP consisted of ¾ lactose and salts and ¼ organic acids (the ratio of propionic acid to lactic acid was 1:3). The agent with bacteria contained 8 log10 colony forming units of lactic acid bacteria per ml FLP and <8 log10 cfu propionic acid bacteria per ml FLP.

SMILES	risk of contamination by undesirable microorganisms during fermentation [1]	silage effluent, formic acid compared with addition of FLP (grass)
C/C=C/C=C/C(=O)[O-].[K+] [potassium sorbate]	reduced the risk of contamination	
O=CO [formic acid]		More silage effluent
O=C([O-])c1ccccc1.[Na+] [sodium benzoate]	reduced the risk of contamination	

From patent US6905716B2, “Propionic acid based preservative agent for animal and vegetable products” (TINE Norske Meierier BA, priority 2000, dated 2005)
